How the values were obtained:
[1] = tested on: Glioblastoma cell line U87-MG; test: MTS cell proliferation assay, U87-MG; format: cell-based; settings: 72 hrs
MiaPaca-2 cells = test: MTS cell proliferation assay, MiaPaca-2; format: cell-based, human; settings: 72 hrs
MiaPaca-2 GemR cells = test: MTS cell proliferation assay, MiaPaca-2 GemR; format: cell-based, human; settings: 72 hrs
[2] = tested on: Adreno-cortical cancer cell lines ACC01 and ACC07; test: MTS cell proliferation assay, ACC01 and ACC07; settings: 72 hrs, lines derived from Stage IV patients
Procedure: All cells were incubated for a further 72 hrs followed by the colorimetric MTS cell proliferation assay (Cory et al., Cancer Commun., 3(7): 207-12 (1991)) using the CellTiter 96 AQueous One Solution Cell Proliferation Assay (Promega Corp., Madison, Wis., USA), according to the manufacturer's instructions. The colorimetric measurements were read at 490 nm.

[3] = tested on: human colorectal cancer cell lines Caco-2 and HCT116; test: MTS cell proliferation assay, Caco-2 and HCT116; format: cell-based; settings: 72 hrs
[4] = tested on: human breast cancer cell line MDA-MB-468; test: MTS cell proliferation assay, MDA-MB-468; format: cell-based; settings: 72 hrs
[5] = tested on: bone marrow derived dendritic cells (BMDC) with CT26Ep12.1 cells; test: BMDC / treated CT26Ep12.1 co-culture; format: cell-based, mouse; settings: 48 h co-incubation
Procedure: The effect of tumor cell death in response to Ep-EDV, Ep-EDV-682, and 682 treatment on dendritic cell maturation was also examined (FIGS. 27E-27I). Bone marrow derived dendritic cells (BMDC) were co-incubated with treated tumor cells (4T1 and CT26Ep12.1) for 48 h, followed by assessment of the production of the type 1 interferons IFNα and IFNβ. Increases in type 1 interferon production by dendritic cells is well established as a mechanism of dendritic cell maturation and enhanced antigen presentation as well as being vital for their interaction with other immune cell subsets including NK cells and T-cells (Fitzgerald-Bocarsly and Feng, 2007; Simmons et al., 2012).
Bone Marrow Derived DCs (BMDC): Bone marrow was isolated from the femurs and tibias of Balb/c mice. […]
Macrophage and DC/Tumor Cell Co-cultures: CT26Ep12.1 and 4T1 cells were harvested with Versene (Gibco) and cells were collected in 1 mL Eppendorf tubes. […] RAW264.7/tumor cell co-cultures were collected using a cell scraper and samples were stained with DAPI (Sigma), anti-CD45 Brilliant Violet 510 (BioLegend), anti-CD86 APC-Cy7, and anti-CD206 AF488 and assessed by flow cytometry. […] RNA concentration was determined on an Eppendorf biophotometer plus. […] Data was exported to excel and the relative quantitation was calculated from the ΔΔCt.

human STING alleles = settings: Corrales et al., 2015, Fu et al.; cited from earlier work
[6] = tested on: human peripheral blood monocytes (PBMCs); settings: multiple donors with different STING genotypes; cited from earlier work
MDA-MB 468 xenografts = test: MDA-MB 468 breast cancer xenograft, EDVsDox with IFN-γ (FIGS. 21, 22); format: in vivo, Balb/c nu/nu mice; settings: IFN-γ 0.5 × 10^4 IU per dose
Text: Breast cancer: To study the anti-tumor effects of combining ^EGFREDVsDox and IFN-γ in a breast cancer model, MDA-MB 468 xenografts in Balb/c nu/nu mice were established and divided into four groups receiving different treatment combinations by intravenous tail vein injection. Group 1 received sterile physiological saline (FIG. 21, open diamonds). Group 2 received IFN-γ (0.5×10^4 IU) per dose (FIG. 21, solid triangles). Group 3 received ^EGFREDVsDox (FIG. 21, solid squares). Group 4 received ^EGFREDVsDox and IFN-γ (0.5×10^4 IU) per dose (FIG. 21, solid circles).

[7] = tested on: A549 (lung cancer) xenografts; test: A549 xenograft, EDVsDox with IFN-γ (FIG. 20); format: in vivo, Balb/c nu/nu mice; settings: i.v. tail vein; IFN-γ 0.5 × 10^4 IU per dose
Text: Lung cancer: To study the anti-tumor effects of combining ^EGFREDVsDox and IFN-γ (type II IFN) in a lung cancer model, A549 (lung cancer) xenografts in Balb/c nu/nu mice were established and divided into four groups receiving different treatment combinations by intravenous tail vein injection. Group 1 received sterile physiological saline (FIG. 20, open diamonds). Group 2 received IFN-γ (0.5×10^4 IU) per dose (FIG. 20, solid triangles). Group 3 received ^EGFREDVsDox (FIG. 20, solid squares). Group 4 received ^EGFREDVsDox and IFN-γ (0.5×10^4 IU) per dose (FIG. 20, solid circles).

With `CC(=O)O[C@H]1C(=O)[C@@]2(C)[C@H]([C@H](OC(=O)c3ccccc3)[C@]3(O)C[C@H](OC(=O)[C@H](O)[C@@H](NC(=O)c4ccccc4)c4ccccc4)C(C)=C1C3(C)C)[C@]1(OC(C)=O)CO[C@@H]1C[C@@H]2O` [paclitaxel IVAX, paclitaxel] the “inhibition of proliferation / resistance of the cell line” value [1] was “resistant”.

With `O=c1[nH]cc(F)c(=O)[nH]1` [5-Fluoro Uracil (5-FU), 5-Fluoro Uracil] the “inhibition of proliferation / resistance of the cells” value (MiaPaca-2 cells) was “resistant”.

In the case of `CCc1c2c(nc3ccc(OC(=O)N4CCC(N5CCCCC5)CC4)cc13)-c1cc3c(c(=O)n1C2)COC(=O)[C@]3(O)CC` [irinotecan], the “inhibition of proliferation / resistance of the cells” value (MiaPaca-2 cells) is reported as “resistant”.

For `Nc1ccn([C@@H]2O[C@H](CO)[C@@H](O)C2(F)F)c(=O)n1` [gemzar], the “inhibition of proliferation / resistance of the cells” value (MiaPaca-2 GemR cells) was “resistant” and the “inhibition of proliferation / resistance of the cells” value (MiaPaca-2 cells) was “resistant”.

In the case of `COc1cccc2c1C(=O)c1c(O)c3c(c(O)c1C2=O)C[C@@](O)(C(=O)CO)C[C@@H]3O[C@H]1C[C@H](N)[C@H](O)[C@H](C)O1` [doxorubicin], the “inhibition of proliferation / resistance of the cell line” value [1] is reported as “resistant”, the “cytotoxic effect / resistance of the cell lines” value (“cytotoxic effect / resistance” below) [2] is reported as “highly resistant” and the “inhibition of proliferation / resistance of the cell lines” value [3] is reported as “resistant”. For the same molecule, the “inhibition of proliferation / resistance of the cell line” value [4] was “resistant”, the “inhibition of proliferation / resistance of the cells” value (MiaPaca-2 cells) was “resistant” and the “increase in IFNβ mRNA production” value [5] was ~5 fold.

In the case of `CN(Cc1cnc2nc(N)nc(N)c2n1)c1ccc(C(=O)N[C@@H](CCC(=O)O)C(=O)O)cc1` [mathotrxate], the “inhibition of proliferation / resistance of the cells” value (MiaPaca-2 cells) is reported as “resistant”.

With `CC(=O)O[C@@]12CO[C@@H]1C[C@H](O)[C@@]1(C)C(=O)[C@H](O)C3=C(C)[C@@H](OC(=O)[C@H](O)[C@@H](NC(=O)OC(C)(C)C)c4ccccc4)C[C@@](O)([C@@H](OC(=O)c4ccccc4)[C@H]21)C3(C)C` [docetaxel] the “inhibition of proliferation / resistance of the cell line” value [4] was “resistant”.

In the case of `Clc1ccc(C(c2ccccc2Cl)C(Cl)Cl)cc1` (stereo not drawn) [mitotane], the “cytotoxic effect / resistance” value [2] is reported as “highly resistant”.

In the case of `Nc1ncnc2c1ncn2[C@@H]1O[C@@H]2COP(O)(=S)O[C@@H]3C(O)[C@@H](COP(O)(=S)O[C@H]2[C@H]1O)O[C@H]3n1cnc2c(N)ncnc21` (stereo partly drawn) [ML RR-S2 CDA], the “activation of human STING alleles” value (human STING alleles) is given as “broadly activate all known human STING alleles” and the “expression of IFN-β” value [6] is given as “dose-dependent expression of IFN-β”.

With `O=C1[O][Pt]2([NH][C@@H]3CCCC[C@H]3[NH]2)[O]C1=O` [oxaliplatin] the “inhibition of proliferation / resistance of the cells” value (MiaPaca-2 cells) was “resistant”.

In the case of `CC(=O)O[C@H]1C(=O)[C@@]2(C)[C@H]([C@H](OC(=O)c3ccccc3)[C@]3(O)C[C@H](OC(=O)[C@H](O)[C@@H](NC(=O)c4ccccc4)c4ccccc4)C(C)=C1C3(C)C)[C@]1(OC(C)=O)CO[C@@H]1C[C@@H]2O` [paclitaxel], the “cytotoxic effect / resistance” value [2] is reported as “highly resistant” and the “inhibition of proliferation / resistance of the cell line” value [4] is reported as “resistant”.

In the case of `COC(=O)c1cc2c([nH]1)C(=O)C=C1N(C(=O)c3cc4cc(OC)c(OC)c(OC)c4[nH]3)C[C@H]3C[C@]123` [duocarmycin], the “cytotoxic effect / resistance” value [2] is reported as “potent cytotoxic effects”.

In the case of `O=C1c2c(O)ccc(O)c2C(=O)c2c(NCCNCCO)ccc(NCCNCCO)c21` [mitoxantrone], the “cytotoxic effect / resistance” value [2] is reported as “highly resistant”.

B1: IFN-γ: type II interferon, given free at 0.5 or 0.75 × 10^4 IU per dose (protein, UniProt P01580 23-155, looked up)
Interferon gamma: HGTVIESLESLNNYFNSSGIDVEEKSLFLDIWRNWQKDGDMKILQSQIISFYLRLFEVLKDNQAISNNISVIESHLITTFFSNSKAKKDAFMSIAKFEVNNPQVQRQAFNELIRVVHQLLPESSLRKRKRSRC
For B1, the “Results: anti-tumor efficacy, Exp. #2 (FIG. 22)” value (MDA-MB 468 xenografts; listed as IFN-) was “no anti-tumor efficacy”, the “Results: anti-tumor efficacy, Exp. #1 (FIG. 21)” value (MDA-MB 468 xenografts; i.v. tail vein) was “no anti-tumor efficacy” and the “Results: anti-tumor efficacy” value [7] was “no anti-tumor efficacy”.
